Source: patent US20250376468A1, “PYRAZOLO[1,5-a]PYRIDINE DERIVATIVES FOR TREATING TRPM3-MEDIATED DISORDERS” (Katholieke Universiteit Leuven, priority 2022, published 2025)

Each compound was assayed against T1, mouse TRPM3α2 (mTRPM3) ion channel (Mus musculus, UniProt J9SQF3) (assay: TRPM3 ion channel driven Ca2+ uptake, Fluo-4 AM assay, stimulated with pregnenolone sulfate (50 μM)). Details: TRPM3 overexpressing flip-in HEK293 cells, PS 50 μM, 2.4 mM Ca2+.
T1 construct: expressed in transfected cells; host or cells: flip-in HEK293 (Flp-In HEK293) overexpressing mTRPM3alpha2
Type: cell-based
Protocol: In order to monitor the inhibition of the mouse TRPM3α2 (mTRPM3) ion channel by the compounds of the invention, a cellular system making use of an mTRPM3alpha2 or hTRPM3 overexpressing cell line (flip-in HEK293) was used. The TRPM3 channel was stimulated/opened with Pregnenolone sulfate (PS) (50 μM) which results in Ca^2+ influx.
For mTRPM3, the intracellular Ca^2+ was measured with a Calcium responsive dye, Fluor-4 AM ester (Invitrogen). Cells were cultured until a confluence of 80-90%, washed with Versene (Invitrogen) and detached from the surface by a short incubation with 0.05% Trypsin (Invitrogen). The […] was stopped by the addition of complete cell culture medium (DMEM, glutamax, 10% FCS, NEAA, Pen-Strep). Cells were collected and resuspended in Krebs buffer without Calcium at RT.
Prior the cell seeding (±2000 cells/well into a black, 384 well plate (Greiner)) the diluted compound was added in the assay plate, together with the PS dissolved in Krebs buffer containing Calcium. […] Directly after cell addition the plates were read on an Envision fluorescence reader (Perkin Elmer) by an Excitation of 485 nm and emission at 535 nm.
Channel inhibition was calculated compared to a non-PS stimulated control versus a condition stimulated with PS (50 μM) with vehicle. The ability of the compounds of the invention to inhibit this activity was determined as: Percentage inhibition=[1−((RFU determined for sample with test compound present−RFU determined for sample with positive control inhibitor) divided by (RFU determined in the presence of vehicle−RFU determined for sample with positive control inhibitor))]*100.
The activities of the Example compounds cpd 001-091 tested are depicted in the table below. All tested compounds show an activity in the Fluo-4 AM assay. The activity ranges A, B and C refer to IC50 values in the Fluo-4 AM assay as follows: “A”: IC50<1 μM; “B”: 1 μM≤IC50≤20 μM and “C”: IC50>20 μM.

T1 sequence (J9SQF3 1-1709 isoform J9SQF3-12): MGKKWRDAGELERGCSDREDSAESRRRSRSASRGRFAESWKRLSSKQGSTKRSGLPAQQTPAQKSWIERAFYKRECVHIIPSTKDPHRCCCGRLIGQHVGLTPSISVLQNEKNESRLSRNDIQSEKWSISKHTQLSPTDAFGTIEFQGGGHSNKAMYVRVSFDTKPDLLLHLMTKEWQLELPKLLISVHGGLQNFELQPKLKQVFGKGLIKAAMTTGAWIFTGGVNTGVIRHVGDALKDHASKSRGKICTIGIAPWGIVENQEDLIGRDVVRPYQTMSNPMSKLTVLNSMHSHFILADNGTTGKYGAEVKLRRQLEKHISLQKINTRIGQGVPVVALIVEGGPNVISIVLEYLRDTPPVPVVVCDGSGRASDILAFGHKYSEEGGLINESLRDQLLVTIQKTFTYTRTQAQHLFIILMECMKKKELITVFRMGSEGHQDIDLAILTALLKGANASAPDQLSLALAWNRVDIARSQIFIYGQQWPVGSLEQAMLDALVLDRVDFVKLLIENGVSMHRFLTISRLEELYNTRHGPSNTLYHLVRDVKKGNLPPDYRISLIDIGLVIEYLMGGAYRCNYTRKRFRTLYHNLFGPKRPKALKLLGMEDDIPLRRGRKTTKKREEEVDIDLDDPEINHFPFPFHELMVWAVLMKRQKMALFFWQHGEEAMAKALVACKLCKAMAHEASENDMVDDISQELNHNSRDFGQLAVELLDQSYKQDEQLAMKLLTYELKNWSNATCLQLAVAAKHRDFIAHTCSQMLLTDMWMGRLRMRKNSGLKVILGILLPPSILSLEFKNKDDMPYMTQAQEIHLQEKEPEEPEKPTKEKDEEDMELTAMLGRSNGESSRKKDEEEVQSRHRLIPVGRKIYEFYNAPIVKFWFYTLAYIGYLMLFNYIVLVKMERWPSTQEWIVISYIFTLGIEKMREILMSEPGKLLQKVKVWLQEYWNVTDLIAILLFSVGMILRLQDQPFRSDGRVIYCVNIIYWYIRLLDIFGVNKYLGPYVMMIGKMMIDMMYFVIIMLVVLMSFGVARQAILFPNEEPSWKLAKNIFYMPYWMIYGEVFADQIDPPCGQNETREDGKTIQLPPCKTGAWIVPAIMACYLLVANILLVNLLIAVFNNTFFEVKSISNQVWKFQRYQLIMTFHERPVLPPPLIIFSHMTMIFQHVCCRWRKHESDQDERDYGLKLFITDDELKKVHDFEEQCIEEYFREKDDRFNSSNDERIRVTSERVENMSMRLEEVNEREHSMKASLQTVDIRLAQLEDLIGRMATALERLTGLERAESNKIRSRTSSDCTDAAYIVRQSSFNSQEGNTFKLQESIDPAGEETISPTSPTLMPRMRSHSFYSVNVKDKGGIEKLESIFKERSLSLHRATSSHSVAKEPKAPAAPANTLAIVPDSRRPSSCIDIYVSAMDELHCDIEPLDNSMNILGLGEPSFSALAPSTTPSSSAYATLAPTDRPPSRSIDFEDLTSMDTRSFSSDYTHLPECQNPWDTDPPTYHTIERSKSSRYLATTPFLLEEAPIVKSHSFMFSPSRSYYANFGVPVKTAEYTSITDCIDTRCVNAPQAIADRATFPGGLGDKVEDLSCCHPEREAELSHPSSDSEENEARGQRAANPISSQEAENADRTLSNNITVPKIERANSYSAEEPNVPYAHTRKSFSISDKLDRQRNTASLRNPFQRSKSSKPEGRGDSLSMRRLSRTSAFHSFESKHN

Row | Structure (SMILES) | IC50 [µM]
1 | Cc1nn2ccc(OCc3ccccn3)cc2c1C(=O)NC(CO)C1CCOCC1 (centres unmarked) [Cpd 077 - En2] | > 20
2 | Cc1nn2ccc(OCc3ccccc3)cc2c1C(=O)O [Cpd 033, 5-(benzyloxy)-2-methylpyrazolo[1,5-a]pyridine-3-carboxylic acid] | > 20
3 | Cc1nn2ccc(OCc3ccccn3)cc2c1C(=O)NC(C)(CO)C(N)=O (single isomer, unassigned) [Cpd 089 - En1, 3-hydroxy-2-methyl-2-({2-methyl-5-[(pyridin-2-yl)methoxy]pyrazolo[1,5-a]pyridin-3-yl}formamido)propanamide] | > 20
4 | Cc1nn2ccc(OCc3ccccn3)cc2c1C(=O)N[C@@]1(CO)C[C@H]1C(F)F (relative stereo) [Cpd 072 - En2, N-[cis-2-(difluoromethyl)-1-(hydroxymethyl)cyclopropyl]-2-methyl-5-[(pyridin-2-yl)methoxy]pyrazolo[1,5-a]pyridine-3-carboxamide] | > 20
5 | Cc1nn2ccc(OCc3ccccn3)cc2c1C(=O)NCC(F)(F)F [Cpd 042, 2-methyl-5-[(pyridin-2-yl)methoxy]-N-(2,2,2-trifluoroethyl)pyrazolo[1,5-a]pyridine-3-carboxamide] | > 20
6 | Cc1nn2ccc(OCc3ccccc3F)cc2c1C(=O)NC(C)(C)C(N)=O [Cpd 004, 2-({5-[(2-fluorophenyl)methoxy]-2-methylpyrazolo[1,5-a]pyridin-3-yl}formamido)-2-methylpropanamide] | 1 to 20
7 | Cc1nn2ccc(OCc3ccccc3Cl)cc2c1C(=O)O [Cpd 036, 5-[(2-chlorophenyl)methoxy]-2-methylpyrazolo[1,5-a]pyridine-3-carboxylic acid] | > 20

Other lines, results leading:

Row | IC50 [µM] | Structure (SMILES)
8 | 1 to 20 | CNC(=O)C(C)(CO)NC(=O)c1c(C)nn2ccc(OCc3ccccc3F)cc12 (single isomer, unassigned) [Cpd 011 - En2, 2-({5-[(2-fluorophenyl)methoxy]-2-methylpyrazolo[1,5-a]pyridin-3-yl}formamido)-3-hydroxy-N,2-dimethylpropanamide]
9 | 1 to 20 | Cc1ncsc1COc1ccn2nc(C)c(C(=O)NC(C)(CO)CO)c2c1 [Cpd 008, N-(1,3-dihydroxy-2-methylpropan-2-yl)-2-methyl-5-[(4-methyl-1,3-thiazol-5-yl)methoxy]pyrazolo[1,5-a]pyridine-3-carboxamide]
10 | 1 to 20 | Cc1nn2ccc(OCc3ccccc3F)cc2c1C(=O)NC1(CO)CCNC1=O (single isomer, unassigned) [Cpd 018 - En1, 5-[(2-fluorophenyl)methoxy]-N-[3-(hydroxymethyl)-2-oxopyrrolidin-3-yl]-2-methylpyrazolo[1,5-a]pyridine-3-carboxamide]
11 | < 1 | CNC(=O)C(C)(CO)NC(=O)c1c(C)nn2ccc(OCc3ccccc3F)cc12 (single isomer, unassigned) [Cpd 011 - En1, 2-({5-[(2-fluorophenyl)methoxy]-2-methylpyrazolo[1,5-a]pyridin-3-yl}formamido)-3-hydroxy-N,2-dimethylpropanamide]
12 | < 1 | Cc1nn2ccc(OCc3ccccc3F)cc2c1C(=O)N[C@H](C(N)=O)[C@@H](C)O [Cpd 007, (2S,3R)-2-({5-[(2-fluorophenyl)methoxy]-2-methylpyrazolo[1,5-a]pyridin-3-yl}formamido)-3-hydroxybutanamide]
13 | < 1 | Cc1nn2ccc(OCc3ccccc3Cl)cc2c1C(=O)NC(C)(CO)C(N)=O (single isomer, unassigned) [Cpd 019 - En1, 2-({5-[(2-chlorophenyl)methoxy]-2-methylpyrazolo[1,5-a]pyridin-3-yl}formamido)-3-hydroxy-2-methylpropanamide]
14 | < 1 | Cc1nn2ccc(OCc3ccccc3F)cc2c1C(=O)N[C@@H](CO)C(N)=O [Cpd 003, (2S)-2-({5-[(2-fluorophenyl)methoxy]-2-methylpyrazolo[1,5-a]pyridin-3-yl}formamido)-3-hydroxypropanamide]
